{"source": "paper PMC5923269", "about": "“The Ustilago maydis repetitive effector Rsp3 blocks the antifungal activity of mannose-binding maize proteins” (Nature Communications, 2018)", "target": "T1, AFP1 (Anti-Fungal Protein 1; AFP1-His) (Zea mays, UniProt B4FUR2)", "T1 construct": "full-length with own signal peptide, secreted; C-terminal His tag; transient expression in Nicotiana benthamiana, NTA-purified from apoplastic fluid; two DUF26 domains", "T1 sequence (B4FUR2 26-268)": "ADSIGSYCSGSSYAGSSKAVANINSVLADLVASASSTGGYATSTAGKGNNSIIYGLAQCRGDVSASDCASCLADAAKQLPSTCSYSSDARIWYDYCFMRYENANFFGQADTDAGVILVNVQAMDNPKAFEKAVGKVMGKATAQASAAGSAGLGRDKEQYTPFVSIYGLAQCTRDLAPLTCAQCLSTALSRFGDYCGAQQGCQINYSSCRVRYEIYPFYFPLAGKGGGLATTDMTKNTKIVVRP", "assay": "pull-down on mannose-agarose beads, anti-His western blot", "assay_type": "binding", "conditions": "mannose immobilised on agarose; 10 mM Tris-HCl pH 7.5, 20 mM CaCl2, 1 M NaCl, 0.05% Tween-20, 4 °C, 1 h", "data": [{"compound": "OC[C@H]1OC(O)[C@@H](O)[C@@H](O)[C@@H]1O", "note": "(stereo partly shown) [mannose]", "values": [{"measurement": "pull-down on mannose-agarose beads, anti-His western blot", "result": "strong binding was observed for wild type AFP1-His"}]}]}
